In EP4670722A1, “PROPHYLACTIC OR AMELIORATING AGENT FOR CELL AGING” (Kyowa Pharma Chemical Co., Ltd., priority 2023, dated 2024):

Columns and labels:
Assay type in all cases: cell-based
[1] = system: Human normal epidermal keratinocytes (HaCaT); assay: Cell viability (Cell Counting Kit-8) of tunicamycin-treated epidermal keratinocytes; settings: tunicamycin 0.1 µg/mL, 50 µg/mL to 200 µg/mL, 24 hours, effect increased as content increased, Fig. 5
Protocol: Human normal epidermal keratinocytes (HaCaT) were cultured using DMEM containing 10% FBS. The cultured cells were collected by trypsin treatment. The collected cells were seeded in a 96-well plate, and when they reached 100% confluence, tunicamycin, an agent that induces endoplasmic reticulum stress, was added at 0.1 µg/mL, and the cells were cultured for 24 hours. A group was also prepared in which FBS-free DMEM medium containing a test sample (2'-fucosyllactose) at 50 µg/mL, 100 µg/mL, or 200 µg/mL was added simultaneously with tunicamycin, and cultured for 24 hours. After completion of culture, the viability of human normal epidermal keratinocytes was evaluated using Cell Counting Kit-8 (manufactured by Dojindo Laboratories). The measurement wavelength (As) was set to 450 nm, and the reference wavelength was set to 620 nm.
Human normal epidermal keratinocytes were cultured and the absorbance at a measurement wavelength of 450 nm was measured in the same manner as in Example 4-1, except that tunicamycin and the test sample were not added. The obtained absorbance was designated as Ab, and the cell viability represented by the above formula (1) was determined.

[2] = system: Human normal dermal fibroblasts (NB1RGB) with a PDL of 30 or less; assay: Cell proliferation rate (MTT) of normal dermal fibroblasts; settings: 50 µg/mL to 200 µg/mL, 2 days, activity increased as content increased, Fig. 2
Protocol: (§1) Human normal dermal fibroblasts (NB1RGB) with a PDL of 30 or less and human senescent dermal fibroblasts (NB1RGB) with a PDL of 50 or more were each cultured using DMEM containing 10% FBS. The cultured cells were collected by trypsin treatment. The collected cells were seeded in a 96-well microplate at a concentration of 5.0 x 10^3 cells/well and cultured overnight. Thereafter, the cells were cultured for 2 days at 37°C in a medium for fibroblast proliferation (FBS-free) to which a test sample (sucrose or 2'-fucosyllactose) was added to a concentration of 50 µg/mL, 100 µg/mL,or 200 µg/mL. The medium was replaced with FBS-free DMEM medium, then 10 µL/well of 5 mg/mL 3-[4,5-dimethylthiazol-2-yl]-2,5-diphenyltetrazolium bromide (MTT) was added, and the cells were cultured at 37°C for 3 hours. […] After extraction, the absorbance of formazan (As, 492 nm) was measured with a microplate reader. […]
(§2) Human normal dermal fibroblasts with a PDL of 30 or less and human senescent fibroblasts with a PDL of 50 or more were each cultured and the absorbance of formazan was measured in the same manner as in Example 2-1, except that no test sample was added. The obtained absorbance was designated as Ab, and the cell proliferation rate represented by the above formula (1) was determined for each case of PDL of 30 or less and PDL of 50 or more.

[3] = system: human senescent dermal fibroblasts (NB1RGB) with a PDL of 50 or more; assay: Cell proliferation rate (MTT) of senescent dermal fibroblasts; settings: 50 µg/mL to 200 µg/mL, 2 days, suppression increased as content increased, Fig. 3
Protocol: as §1, §2

GLS1 = GLS1 expression analysis (Western blot) in HEK293; settings: human embryonic kidney cells (HEK293), at least 200 µg/mL or more, 24 hours; effect increased from 200 to 1000 µg/mL; Fig. 12
Protocol: Human embryonic kidney cells (HEK293) were cultured in DMEM containing 10% FBS. The cultured cells were collected by trypsin treatment. The collected cells were seeded in a 6-well plate, and when they reached 100% confluence, DMEM containing 2'-FL as a test sample at 50 µg/mL, 200 µg/mL, or 1000 µg/mL, and lactose at 50 µg/mL or 200 µg/mL was added, and cultured for 24 hours in a 37°C, 5% CO2 incubator. The culture supernatant was removed, the cells were washed twice with phosphate-buffered saline (PBS), and 0.20 mL of RIPA buffer (manufactured by Nacalai Tesque, Inc.) was added to extract total protein. Protein in each protein extract was quantified by the Bradford assay.
Protein extracts were collected in the same manner as in [Example 10-1 A. Human embryonic kidney cells (HEK293)], except that DMEM not containing the test sample was used instead of DMEM containing the test sample, and protein in each protein extract was quantified by the Bradford assay.
Western blot analysis was performed on each protein extract using an anti-GLS1 antibody and an anti-β-actin antibody. […] The intensity of color development was quantified using the open-source software 'ImageJ'. The relative value of the GLS1 amount relative to the β-actin amount when each test sample was added was calculated, with the GLS1 amount relative to the β-actin amount in the control set to 1. […]

## C[C@@H]1O[C@@H](O[C@H]2[C@H](O[C@H]3[C@H](O)[C@@H](O)C(O)O[C@@H]3CO)O[C@H](CO)[C@H](O)[C@@H]2O)[C@@H](O)[C@H](O)[C@@H]1O (stereo partly shown) [2'-FL, 2'-fucosyllactose]
[1]
  endoplasmic reticulum stress (cell viability): ameliorated endoplasmic reticulum stress
[2]
  proliferation activity of normal fibroblasts (cell proliferation rate): improved the proliferation activity of normal fibroblasts
[3]
  proliferation of senescent fibroblasts (cell proliferation rate): suppressed the proliferation of senescent fibroblasts
GLS1
  GLS1 expression: suppressed GLS1 expression
